Test results reported in patent US20230096766A1, “AMINO ACID HAVING FUNCTIONAL GROUP CAPABLE OF INTERMOLECULAR HYDROGEN BONDING, PEPTIDE COMPOUND CONTAINING SAME AND METHOD FOR PRODUCTION THEREOF” (Chugai Seiyaku Kabushiki Kaisha, priority 2018, published 2023).
*1 amine or outer side, *2 acyl side, *3 side chain or, on linkers, in order; H or OH if unused. Where a SMILES comes first, the peptide text is derived from it. Bridges are numbered along the chain shown (N, C = ends). [ ]: non-standard residue; d: D form. The star is where a group is joined. ξ: configuration not given here. hPhe(3-OMe,4-CONHMe) = CNC(=O)c1ccc(CC[C@H](N)C(=O)O)cc1OC; NMePhe(3-Cl) = CN[C@@H](Cc1cccc(Cl)c1)C(=O)O; X12 = O=C([C@H](CCCC(O)C(F)(F)F)N[*:1])[*:2]; NMeF = CN[C@@H](Cc1ccccc1)C(=O)O; NMeGABA = CN(CCCC(=O)[*:2])[*:1]; NMeD = CN[C@@H](CC(=O)O)C(=O)O; NMeL = CN[C@@H](CC(C)C)C(=O)O; ξNMeF = CNC(Cc1ccccc1)C(=O)O; Butyl(3S-OH) = C[C@H](O)CC*; NMeV = CN[C@H](C(=O)O)C(C)C; NMeAbu = CC[C@H](NC)C(=O)O; NMeA = CN[C@@H](C)C(=O)O; Piperidide = C1CCN(*)CC1; CH2CMe2OH = CC(C)(O)C*; NBuGly = CCCCNCC(=O)O; Isopentyl = CC(C)CC*; NPrGly = CCCNCC(=O)O; ξS = NC(CO)C(=O)O; X3 = C[C@H](O)C*; Sar = CNCC(=O)O; tBu = CC(C)(C)*

Experiment: in vitro
Conditions: human

Compound | Papp (Caco-2, Caco-2 (cm/sec)) | Papp (Caco-2, Caco-2 (membrane permeability))
CC(C)C[C@@H]1NC(=O)[C@H](Cc2ccccc2)N(C)C(=O)[C@@H](C(C)C)NC(=O)C[C@@H](C(=O)N2CCCCC2)NC(=O)[C@H](CC(C)C)N(C)C(=O)[C@H](Cc2cccc(Cl)c2)N(C)C(=O)[C@H](COCC(C)(C)O)NC(=O)[C@H](CC(C)C)N(C)C(=O)CN(C)C(=O)[C@H]([C@@H](C)O)NC(=O)[C@H](CC(C)C)N(C)C1=O [AP02] ([dV][NMeF]L[NMeL]T[Sar][NMeL]S(CH2CMe2OH)[NMePhe(3-Cl)][NMeL]D-Piperidide; lactam N-11) | 1.3 ×10⁻⁶ cm/s | –
CCCN1CC(=O)N(C)[C@@H](Cc2ccccc2)C(=O)N(C)[C@@H](CC(C)C)C(=O)N[C@@H](COCC(C)(C)O)C(=O)N(C)[C@@H](CC(C)C)C(=O)N[C@H](C(=O)N2CCCCC2)CC(=O)N(C)CC(=O)N(C)[C@@H](Cc2ccccc2)C(=O)N[C@@H]([C@@H](C)CC)C(=O)N(C)[C@@H](CC(C)C)C(=O)N[C@@H]([C@@H](C)O)C1=O [AP08] ([Sar][NMeF]I[NMeL]T[NPrGly][NMeF][NMeL]S(CH2CMe2OH)[NMeL]D-Piperidide; lactam N-11) | 0.67 ×10⁻⁶ cm/s | –
CC(C)C[C@@H]1NC(=O)[C@H](Cc2ccccc2)N(C)C(=O)[C@H](COC(C)(C)C)NC(=O)[C@H](Cc2ccccc2)N(C)C(=O)[C@H](C)N(C)C(=O)[C@H](CC(C)C)N(C)C(=O)[C@@H](C)NC(=O)C[C@@H](C(=O)N2CCCCC2)N(C)C(=O)[C@H](Cc2ccccc2)N(C)C(=O)[C@H]([C@@H](C)O)NC(=O)[C@H](C(C)C)N(C)C1=O [pd208] ([dA][NMeL][NMeA][NMeF]S(tBu)[NMeF]L[NMeV]T[NMeF][NMeD]-Piperidide; lactam N-11) | 1.7 ×10⁻⁶ cm/s | –
CCCCN1CC(=O)N(C)[C@@H](Cc2ccccc2)C(=O)N(C)[C@@H](CC(C)C)C(=O)N[C@@H](COC(C)(C)C)C(=O)N(C)[C@@H](CC(C)C)C(=O)N[C@H](C(=O)N2CCCCC2)CC(=O)N(C)CC(=O)N(C)[C@@H](Cc2ccccc2)C(=O)N[C@@H](C(C)C)C(=O)N(C)[C@@H](CC)C(=O)N[C@@H](CCCC(O)C(F)(F)F)C1=O (stereo partly drawn) [Compound D16] ([Sar][NMeF]V[NMeAbu][X12][NBuGly][NMeF][NMeL]S(tBu)[NMeL]D-Piperidide; lactam N-11) | – | 0.51 ×10⁻⁶ cm/s
CC[C@H]1C(=O)N[C@@H](Cc2ccc(O)cc2)C(=O)N(C)[C@@H](CC(C)C)C(=O)N(C)[C@@H](CC(C)C)C(=O)N[C@@H](C(C)C)C(=O)N(C)[C@@H](Cc2ccccc2)C(=O)N(C)[C@@H](CC(C)C)C(=O)N[C@@H]([C@@H](C)O)C(=O)N(C)CC(=O)N(C)[C@@H](CC(C)C)C(=O)N[C@H](C(=O)N2CCCCC2)CC(=O)N1C [Compound F06] ([NMeAbu]Y[NMeL][NMeL]V[NMeF][NMeL]T[Sar][NMeL]D-Piperidide; lactam N-11) | 0.23 ×10⁻⁶ cm/s | –
CC(C)CCOC[C@@H]1NC(=O)[C@H](Cc2cccc(Cl)c2)N(C)C(=O)[C@H](Cc2ccccc2)N(C)C(=O)[C@H](COC[C@H](C)O)NC(=O)[C@H](CC(C)C)N(C)C(=O)CCCN(C)C(=O)C[C@@H](C(=O)N2CCCCC2)NC(=O)[C@H](CC(C)C)N(C)C(=O)[C@H](CC(C)C)N(C)C(=O)[C@H]([C@@H](C)O)NC(=O)[C@H](CC(C)C)N(C)C1=O [AP63] ([NMeGABA][NMeL]S(X3)[NMeF][NMePhe(3-Cl)]S(Isopentyl)[NMeL]T[NMeL][NMeL]D-Piperidide; lactam N-11) | 0.14 ×10⁻⁶ cm/s | –
CC(C)C[C@H]1C(=O)N[C@@H](C(C)C)C(=O)N(C)[C@@H](Cc2ccccc2)C(=O)N(C)[C@@H](Cc2cccc(Cl)c2)C(=O)NC(COCC[C@H](C)O)C(=O)N(C)[C@@H](CC(C)C)C(=O)N[C@@H]([C@@H](C)O)C(=O)N(C)[C@@H](CC(C)C)C(=O)N(C)[C@@H](CC(C)C)C(=O)N[C@H](C(=O)N2CCCCC2)CC(=O)N(C)CCCC(=O)N1C (stereo partly drawn) [AP102] ([NMeGABA][NMeL]V[NMeF][NMePhe(3-Cl)][ξS](Butyl(3S-OH))[NMeL]T[NMeL][NMeL]D-Piperidide; lactam N-11) | 0.43 ×10⁻⁶ cm/s | –
CC[C@H]1C(=O)N[C@@H](CC(C)C)C(=O)N(C)[C@@H](CC(C)C)C(=O)N(C)C(Cc2ccccc2)C(=O)N[C@@H](CCc2ccc(C(=O)NC)c(OC)c2)C(=O)N(C)[C@@H](CC(C)C)C(=O)N(C)[C@@H](CC(C)C)C(=O)N[C@@H]([C@@H](C)O)C(=O)N(C)CC(=O)N(C)[C@@H](CC(C)C)C(=O)N[C@H](C(=O)N2CCCCC2)CC(=O)N1C (stereo partly drawn) [AP204] ([NMeAbu]L[NMeL][ξNMeF][hPhe(3-OMe,4-CONHMe)][NMeL][NMeL]T[Sar][NMeL]D-Piperidide; lactam N-11) | 1.6 ×10⁻⁶ cm/s | –
CCCCN1CC(=O)N(C)[C@@H](Cc2ccccc2)C(=O)N(C)[C@@H](CC(C)C)C(=O)N[C@@H](Cc2ccc(O)cc2)C(=O)N(C)[C@@H](CC(C)C)C(=O)N[C@H](C(=O)N2CCCCC2)CC(=O)N(C)CC(=O)N(C)[C@@H](CC(C)C)C(=O)N[C@@H]([C@@H](C)CC)C(=O)N(C)[C@@H](CC(C)C)C(=O)N[C@@H]([C@@H](C)O)C1=O [Compound F08] ([Sar][NMeL]I[NMeL]T[NBuGly][NMeF][NMeL]Y[NMeL]D-Piperidide; lactam N-11) | 0.05 ×10⁻⁶ cm/s | –
